From ChEMBL document CHEMBL3507680, “University of Dundee, Gates Library screen for HepG2 cell viability”
“And” between values parts separate entries of the source, which are not always exact repeats. Equal values may be shown once.

Assays:
[1] = Human HepG2 cell viability assay in 384 well format; type: toxicity, cell-based; design: dose 125 nL, time 70.5 hour; cytotoxicity at 70.5 h: concentration not given beside the values; conditions: for Inhibition: hepg2, 70.5 h, 70.5 h; for cytotoxicity at 70.5 h: HepG2 cells, read-out: Inhibition
[2] = Human HepG2 cell viability dose-response assay; type: toxicity, cell-based

Row | Structure (SMILES) | cytotoxicity at 70.5 h [1] [%] | further results
1 | CC1=Nc2c(c(=O)[nH]n2C2CCCC2)C(c2ccc(C(=O)O)cc2)S1 (stereo not given) |  | Inhibition [1]: -12.72% and -17.34%
2 | CC1=Nc2c(c(=O)[nH]n2C2CCCC2)C(c2cccnc2)S1 (stereo not given) |  | Inhibition [1]: -2.319% and 7.616%
3 | CCOC(=O)CC(c1cccc(OC)c1OC)c1c(C)[nH][nH]c1=O (stereo not given) |  | Inhibition [1]: -11.36% and -3.674%
4 | CCS(=O)(=O)N1CCc2ccc(NC(=O)Nc3ccc(F)cc3F)cc21 | 61 | BOTTOM [2]: -8.818 and -13.27; HILLSLOPE [2]: 1.034 and 0.9987; TOP [2]: 101.1 and 100; pXC50 [2]: 4.643 and 4.737
5 | CCC(=O)Nc1ccc2c(c1)CN(C(=O)c1ccco1)CC2 | 66.1 | BOTTOM [2]: 0; HILLSLOPE [2]: 0; TOP [2]: 0; pXC50 [2]: < 4.53
6 | CCCNc1cc(-c2c[nH]nc2C2CCN(C(=O)C3CCC3)C2)ccn1 (stereo not given) | 96.6 | HILLSLOPE [2]: 3.782 and 3.402; TOP [2]: 97.22 and 96.9; pXC50 [2]: 6.441 and 6.523
7 | COc1cc(OC)c(C2Nc3cc(Cl)ccc3C3=NCCN32)cc1OC (stereo not given) | 73.2 | HILLSLOPE [2]: 0.8757 and 0.9571; TOP [2]: 114.1 and 108.1; pXC50 [2]: 4.986 and 5.042
8 | CCCn1ncc(-c2ccnc(NC3CC(C)(C)NC(C)(C)C3)n2)c1C | 80.1 | BOTTOM [2]: 0; HILLSLOPE [2]: 0; TOP [2]: 0; pXC50 [2]: < 4.53
9 | Cc1nc(C2CCCN(C(=O)c3cccc4c3OCO4)C2)sc1C (stereo not given) | -2.18 | 
10 | Cc1csc(C2CCCN(C(=O)c3cccc4c3OCO4)C2)n1 (stereo not given) | -4.7 | 
11 | CC(C)c1nc(C2CCCN(C(=O)c3cccc4c3OCO4)C2)no1 (stereo not given) | -1.62 | 
12 | COCCn1cc(NC(=O)NC(C)Cc2c(F)cccc2F)cn1 (stereo not given) | 12.3 | 
13 | Cc1cc(NC(=O)NCc2cccnc2OC2CCCC2)n(C)n1 | -2.74 | 
14 | COc1ncccc1CNC(=O)Nc1cc(C)nn1C | -7.29 | 
15 | Cc1cccnc1NC(=O)NCc1cccnc1OC(C)C | -6.17 | 
16 | Cc1ccccc1CNC(C)c1ccc(OCC(=O)NC2CC2)cc1 (stereo not given) | 13.8 | 
17 | CC(Cc1ccccc1Cl)NC(=O)Nc1cnn(CC(N)=O)c1 (stereo not given) | -2.99 | 
18 | COc1ccc(COCC(O)CNC(=O)c2cc(C)no2)cc1 (stereo not given) | -4.49 | 
19 | COc1ccc(COCC(O)CNC(=O)c2cc(C)oc2C)cc1 (stereo not given) | 1.97 | 
20 | Cc1ncccc1CNCC1CCN(CCO)CC1 | -0.718 | 
21 | Cc1cnn(CC(C)NCc2ccc(OCc3cccnc3)cc2)c1 (stereo not given) | 2.45 | 
22 | Cc1cnn(CC(C)NCc2ccc(OCc3cscn3)cc2)c1 (stereo not given) | -6.24 | 

Row | Structure (SMILES) | cytotoxicity at 70.5 h [1] [%] | further results
23 | Cc1nnc2n1CCN(CCOc1ccc(C(C)(C)C)cc1)C2 | -4.66 | 
24 | O=C(NC1CC1)C1CCN(c2snc3ccccc23)CC1 | 15.8 | 
25 | CC1CCCN(C(=O)C2CCN(c3snc4ccccc34)CC2)C1 (stereo not given) | 5.93 | 
26 | CSCC(=O)N1CCCCC1Cn1cc(C)cn1 (stereo not given) | -1.03 | 
27 | Cc1cnn(CC2CCCN2C(=O)Cc2c(C)nc(C)[nH]c2=O)c1 (stereo not given) | 15.2 | 
28 | CCc1nc(C)ncc1C(=O)N1CCOC(c2nc(C)n[nH]2)C1 (stereo not given) | -0.337 | 
29 | CCCc1n[nH]c(C2CN(CCNS(C)(=O)=O)CCO2)n1 (stereo not given) | 25.5 | 
30 | CCn1ccnc1CN1CCCN(C(=O)COC2CCCC2)CC1 | 22.5 | 
31 | Cc1cc(CN(Cc2cccs2)CC2CCCO2)on1 (stereo not given) | 20.8 | 
32 | O=C(NCC(F)(F)F)C1CSCN1S(=O)(=O)c1ccccc1F (stereo not given) | 26 | 
33 | CCN1CCC(CNC(=O)C2(c3ccc(F)cc3)CC2)C1 (stereo not given) | 52 | 
34 | CCCc1n[nH]c(C2CN(CCCS(=O)(=O)N(C)C)CCO2)n1 (stereo not given) | -4.5 | 
35 | Cc1cnn(CC2CN(Cc3nccn3CC(F)(F)F)CCO2)c1 (stereo not given) | 26.3 | 
36 | N#CC1CCN(C(=O)NCCc2ccc(Cl)s2)CC1 | -3.5 | 
37 | O=C(Cc1csc(-c2ccco2)n1)N1CCN(c2ccccc2O)CC1 | -4.66 | 
38 | c1ccc(Cc2noc(CN(Cc3cccs3)CC3CCCO3)n2)cc1 (stereo not given) | -4.54 | 
39 | CC(=O)N1CCN(C(=O)NCc2ccc(Cl)s2)CC1 | 20.2 | 
40 | Cc1ccc(S(=O)(=O)N2CSCC2C(=O)NCC(F)(F)F)cc1C (stereo not given) | -3.59 | 
41 | N#Cc1ccc(S(=O)(=O)N2CSCC2C(=O)NCC(F)(F)F)cc1 (stereo not given) | -5.51 | 
42 | O=C(Cc1csc(-c2ccco2)n1)N1CCN(c2nccs2)CC1 | -5.89 | 
43 | Cc1ccoc1C(=O)NC1CCN(Cc2ccccc2F)CC1 | 27.3 | 
44 | Cc1ncsc1C(=O)NC1CCN(Cc2cccc3c2OCCO3)CC1 | -0.651 | 

Row | Structure (SMILES) | cytotoxicity at 70.5 h [1] [%] | further results
45 | Cc1ccoc1C(=O)NC1CCN(Cc2ccccc2C#N)CC1 | -1.98 | 
46 | Cc1ccc(NC2CCN(C(=O)c3ccc(F)cc3Cl)CC2)nn1 | -3.69 | 
47 | O=C(O)c1cc(S(=O)(=O)Nc2ccccc2)cc2c1OCCO2 | 4.5 | 
48 | Cc1ccc(NS(=O)(=O)c2cc3c(c(C(=O)O)c2)OCCO3)cc1F | -3.64 | 
49 | CCc1ccc(NS(=O)(=O)c2cc3c(c(C(=O)O)c2)OCCO3)cc1 | -0.0386 | 
50 | CN(Cc1ccsc1)C(=O)Nc1ccc(S(C)(=O)=O)nc1 | 2.4 | 
51 | COC(=O)c1ccc(S(=O)(=O)NCc2cccnc2N(C)C)cc1 | 29.6 | 
52 | CCCOc1ccc(CNC(=O)N2CCC(C(N)=O)C2)cc1 (stereo not given) | -0.602 | 
53 | CC(C)N(CC(N)=O)Cc1csc(COc2ccc(F)cc2)n1 | 43.4 | 
54 | CS(=O)(=O)c1ccc(CNC(=O)N2CCC(C(N)=O)C2)cc1 (stereo not given) | 30 | 
55 | CCOc1ccnc(N2CCN(C(=O)c3cccnc3O)CC2)n1 | 1.67 | 
56 | CCCc1nc(CN2CCCC2Cn2cncn2)cs1 (stereo not given) | 17.1 | 
57 | COc1cc(C)nc(N2CCN(C(=O)CCn3cc(C)cn3)CC2)n1 | -0.584 | 
58 | CC(=O)Nc1nc(CN2CCCC2c2cnn(C)c2)cs1 (stereo not given) | 31.4 | 
59 | CCn1ncc2c1CCCC2NCc1cc(Cl)c(OC)c(OC)c1 (stereo not given) | 27.8 | 
60 | CCn1ncc2c1CCCC2NCc1ccc(OC)c(C)c1 (stereo not given) | 33.6 | 
61 | Cc1nc(C)n(C2CCCN(C(=O)c3sccc3C3CC3)C2)n1 (stereo not given) | 21.5 | 
62 | Cc1nn(C)c(N2CCOCC2)c1CNC1CCOc2ccccc21 (stereo not given) | -3.07 | 
63 | COc1c(C)cnc(CN2CCOC(Cn3nc(C)nc3C)C2)c1C (stereo not given) | -1.22 | 
64 | c1coc(-c2noc(CN3CCCC(Cn4cncn4)C3)n2)c1 (stereo not given) | 26 | 
65 | CCn1cc(CN2CCCN(C(=O)c3sccc3C#N)CC2)cn1 | 37.5 | 
66 | CCn1ccnc1CN1CCCN(C(=O)c2sccc2C#N)CC1 | 1.96 | 

Row | Structure (SMILES) | cytotoxicity at 70.5 h [1] [%] | further results
67 | CCc1noc(C)c1C(=O)N1CCCC1c1c(C)nn(C)c1OC (stereo not given) | 18 | 
68 | Cc1nn(C)c(C)c1C1CCCN1Cc1cccc(C(=O)N(C)C)c1 (stereo not given) | 37.6 | 
69 | Cc1nc(CN2CCOC(c3nc(C(C)C)n[nH]3)C2)oc1C (stereo not given) | 6.2 | 
70 | CCc1nc(CN(C(C)=O)C2CCN(CCc3cnn(C)c3)C2)no1 (stereo not given) | 21.3 | 
71 | CCN1CCN(C2CCN(Cc3noc(C)n3)CC2)C1=O | 28.4 | 
72 | Cc1ccc(NC(=O)NCCCc2n[nH]c(N)c2C#N)cc1 | -3.1 | 
73 | COCCOc1ccc(NC(=O)C2CCC2)cn1 | -7.54 | 
74 | CC(NC(=O)NCCCn1ccnc1)c1ccc2c(c1)CCC(=O)N2 (stereo not given) | 43.4 | 
75 | Cc1noc(NC(=O)c2ccc(C)c(F)c2)n1 | 41 | 
76 | CC(NC(=O)NCCCn1cccn1)c1ccc2c(c1)NC(=O)CO2 (stereo not given) | 46.4 | 
77 | N#Cc1cccc(S(=O)(=O)NC2CCN(Cc3ccccc3)C2=O)c1 (stereo not given) | -2.45 | 
78 | COc1cc(C(=O)Nc2c(C)noc2C)ccc1C | 1.7 | 
79 | CCS(=O)(=O)N(C)C(=O)c1cc(C)n(-c2cccc(OC)c2)c1C | 27.9 | 
80 | Cc1cnn(CC2CN(c3cnc4ccccc4n3)CCO2)c1 (stereo not given) | 48.4 | 
81 | Cc1cc(CN2CCN(CC(O)C(C)(C)C)CC2)no1 (stereo not given) | 9.4 | 
82 | CC(C)c1n[nH]c(C(=O)Nc2ccnn2C(C)C)c1Br | 45.8 | 
83 | Cc1cc(CN2CCN(CC(O)c3ccccc3)CC2)no1 (stereo not given) | 0.624 | 
84 | COc1cccc2cc(CNC(=O)N3CCCC(O)C3)oc12 (stereo not given) | 46.8 | 
85 | CNS(=O)(=O)CCCN1CCCC1c1noc(C2CC2)n1 (stereo not given) | -6.19 | 
86 | Cc1nc(CN2CCCC(NCCOc3ccccc3)C2)no1 (stereo not given) | -5.84 | 
87 | Cc1cc(C)n(C2CCCN(C(=O)Cc3csc(C)n3)C2)n1 (stereo not given) | 12.8 | 
88 | Cc1nc(CN2CCCC(NCCOCC(F)(F)F)C2)no1 (stereo not given) | 24.6 | 

Row | Structure (SMILES) | cytotoxicity at 70.5 h [1] [%] | further results
89 | COc1ccccc1CC(=O)N1CCCC(n2nc(C)cc2C)C1 (stereo not given) | 2.04 | 
90 | CN(Cc1ncc(C(C)(C)C)o1)C1CCCN(c2cccnn2)C1 (stereo not given) | -11.9 | 
91 | Cc1nccn1CC1CCCN1S(=O)(=O)Cc1ccon1 (stereo not given) | 4.51 | 
92 | Cn1cc(C2CCCN2C(=O)Cc2n[nH]c3ccccc23)cn1 (stereo not given) | 40.1 | 
93 | CCC(CC)C(CNC(=O)Nc1cc(C)nn1C)N1CCOCC1 (stereo not given) | 36.9 | 
94 | Cc1cc(CN2CCN(C(=O)NCc3ccc(C)s3)CC2)no1 | -27.6 | 
95 | CN1CCN(C(=O)c2cnc3c(cnn3C3CCCC3)c2)CC1 | -10 | 
96 | CCN(CC1CCCO1)C(=O)Nc1cc(OC)c(OC)cc1C (stereo not given) | -14.3 | 
97 | CC(C)C(=O)N1CCN(C(=O)CCc2nnc(-c3ccccc3)o2)CC1 | -21.2 | 
98 | CCC(O)CN1CCN(C(=O)c2cccn2Cc2cccs2)CC1 (stereo not given) | -17.9 | 
99 | Cc1nc(C2CCCN(C(=O)c3cc(Cl)c[nH]3)C2)no1 (stereo not given) | -15.5 | 
100 | Cc1cc(C(=O)N2CCCC(c3noc(C)n3)C2)[nH]n1 (stereo not given) | 34.4 | 
101 | O=C(CCCc1nnc(-c2ccccc2)o1)N1CCN(CCO)CC1 | -32.4 | 
102 | CCN(CC1CCCO1)C(=O)Nc1cc(C(=O)OC)ccc1F (stereo not given) | -22.1 | 
103 | O=C(c1n[nH]c2ccccc12)N1CCCC1c1noc(C2CC2)n1 (stereo not given) | -17.4 | 
104 | CCOC1CCCN(C(=O)c2cnc3c(cnn3C3CCCC3)c2)C1 (stereo not given) | -18 | 
105 | CC(C)(C)c1cnc(CN2CCC(c3ccnn3CCO)CC2)o1 | -11.1 | 
106 | CCn1nnc2cc(C(=O)N3CCCC3Cn3cc(C)cn3)ccc21 (stereo not given) | -19.4 | 
107 | Cc1cnn(CC2CCCN2Cc2nc3ccccc3n2C)c1 (stereo not given) | -10.6 | 
